According to the supplement of paper PMC8967900:

Legend:
Test in all cases: selective drug sensitivity score (sDSS, relative to normal bone marrow) (sDSS (score)); higher = more potent and effective on the cell line relative to normal bone marrow cells
Conditions in all cases: 72 h
P12-ICHIKAWA = tested on: P12-ICHIKAWA
MN-60 = tested on: MN-60
PEER = tested on: PEER
LC4-1 = tested on: LC4-1
KASUMI-2 = tested on: KASUMI-2
TMD5 = tested on: TMD5
MHH-CALL-4 = tested on: MHH-CALL-4
KASUMI-10 = tested on: KASUMI-10
CCRF-HSB2 = tested on: CCRF-HSB2
COG-LL-332h = tested on: COG-LL-332h
COG-LL-355h = tested on: COG-LL-355h
MOLT-4 = tested on: MOLT-4
P30-OHKUBO = tested on: P30-OHKUBO
PF-382 = tested on: PF-382
COG-LL-394h = tested on: COG-LL-394h
KARPAS-45 = tested on: KARPAS-45
ALL-PO = tested on: ALL-PO
DND-41 = tested on: DND-41
RCH-ACV = tested on: RCH-ACV
COG-LL-319h = tested on: COG-LL-319h
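Further: ALL cell lines in 384-well plates, five doses spanning 10,000-fold, each plate scaled between vehicle and 100 µmol/L benzalkonium chloride controls, sDSS an adapted area-under-curve metric.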

| SMILES | selective drug sensitivity score (P12-ICHIKAWA) | selective drug sensitivity score (MN-60) | selective drug sensitivity score (PEER) | selective drug sensitivity score (LC4-1) | selective drug sensitivity score (KASUMI-2) | selective drug sensitivity score (TMD5) | selective drug sensitivity score (MHH-CALL-4) | selective drug sensitivity score (KASUMI-10) | selective drug sensitivity score (CCRF-HSB2) | selective drug sensitivity score (COG-LL-332h) | selective drug sensitivity score (COG-LL-355h) | selective drug sensitivity score (MOLT-4) | selective drug sensitivity score (P30-OHKUBO) | selective drug sensitivity score (PF-382) | selective drug sensitivity score (COG-LL-394h) | selective drug sensitivity score (KARPAS-45) | selective drug sensitivity score (ALL-PO) | selective drug sensitivity score (DND-41) | selective drug sensitivity score (RCH-ACV) | selective drug sensitivity score (COG-LL-319h) |
| --- | --- | --- | --- | --- | --- | --- | --- | --- | --- | --- | --- | --- | --- | --- | --- | --- | --- | --- | --- | --- |
| CCn1cc(-c2ccnc3[nH]c(-c4cccc(CN(C)C)c4)cc23)c(-c2ccc(NC(=O)N(C)C)cc2)n1 (top concentration 1000 nM) | 15.4 | -1.84 | 20.4 | 23.4 | 17.7 | 13.5 | 7.46 | 9.86 | 15.5 | 19.3 | 8.36 | 13.1 | 26.6 | 9.26 | 0.36 | 24.1 | 13.2 | -0.84 | 14 | 22.9 |
| CC(C)(C)C[C@@H]1N[C@@H](C(=O)N[C@H]2CC[C@H](O)CC2)[C@H](c2cccc(Cl)c2F)[C@]12C(=O)Nc1cc(Cl)ccc12 (top concentration 10000 nM) | -5.24 | -0.74 | -2.04 | 12.4 | 11.7 | 9.16 | 8.96 | 12.5 | 9.06 | 8.66 | 8.46 | 12.9 | 12.4 | -3.94 | 6.46 | -2.64 | -1.84 | -3.84 | 12.4 | 13.9 |
| Cc1c(Cn2c(C)nc3c(C(=O)O)cc(N4CCOCC4)cc32)cccc1C(F)(F)F (top concentration 10000 nM) | -0.02 | -0.02 | -0.02 | -0.02 | -0.02 | -0.02 | 0.58 | -0.02 | -0.02 | 0.98 | 1.98 | -0.02 | 2.38 | -0.02 | -0.02 | 0.08 | 0.08 | 1.78 | 5.18 | -0.02 |
| Nc1ncnc2c1c(COc1cccc(Cl)c1)nn2C1CCOCC1 (top concentration 10000 nM) | -0.54 | 2.96 | -0.64 | 0.26 | 2.46 | -0.64 | -0.64 | -0.64 | 2.96 | -0.14 | 2.06 | 0.16 | 0.56 | -0.24 | -0.64 | 0.26 | 0.66 | -0.64 | 6.06 | 3.96 |
| Cn1cc(C[C@@H](N)C(=O)O)c2ccccc21 [1-methyl-D-tryptophan] (top concentration 5000 nM) | -0.62 | -0.62 | -0.62 | -0.62 | 0.38 | -0.62 | -0.62 | -0.62 | -0.62 | -0.62 | -0.62 | -0.62 | 0.58 | -0.62 | -0.62 | -0.62 | -0.62 | -0.62 | -0.62 | -0.62 |
| COc1cc2c(cc1OCCCN1CCCC1)N=C(N)C21CCC1 [A-366] (top concentration 25000 nM) | -0.84 | -1.84 | 1.46 | -1.24 | -1.84 | -1.84 | -0.34 | 1.46 | 0.16 | 4.86 | 0.76 | 1.36 | 2.56 | -0.84 | 2.06 | 5.16 | 1.76 | 4.56 | 0.06 | 3.16 |
| COCCOc1cnc2ccn([C@H](C)c3nnc4c(F)cc(-c5cnn(C)c5)cn34)c(=O)c2c1 [AMG-337] (top concentration 10000 nM) | -0.06 | -0.06 | -0.06 | -0.06 | 2.14 | -0.06 | -0.06 | -0.06 | -0.06 | -0.06 | -0.06 | -0.06 | 0.84 | -0.06 | -0.06 | -0.06 | -0.06 | -0.06 | -0.06 | -0.06 |
| COc1cc(N2CCC(N3CCN(C)CC3)CC2)ccc1Nc1ncnc(Nc2ccccc2S(=O)(=O)C(C)C)n1 [ASP3026] (top concentration 10000 nM) | -1.44 | 0.66 | -0.24 | -0.44 | -4.04 | -1.84 | -3.94 | 2.86 | 5.06 | -0.04 | 1.36 | -0.14 | -1.04 | -0.04 | 2.36 | 0.56 | 5.36 | 0.56 | -0.74 | -4.04 |
| CN[C@@H](C)C(=O)N[C@H]1CN(C(=O)CC(C)C)CC[C@H]2CC[C@@H](C(=O)NC(c3ccccc3)c3ccccc3)N2C1=O [AT-406] (top concentration 10000 nM) | -1.26 | -1.26 | -1.16 | -1.26 | 0.34 | 6.54 | -1.26 | -1.26 | 1.94 | 2.54 | 8.04 | -1.26 | -1.06 | -1.26 | 5.84 | -1.26 | -1.26 | -1.26 | 0.84 | -1.06 |
| COc1cc2ncnc(Nc3cccc(Cl)c3F)c2cc1OC(=O)N1CCN(C)C[C@H]1C [AZD3759] (top concentration 1000 nM) | -0.04 | -0.04 | -0.04 | -0.04 | -0.04 | 0.06 | -0.04 | -0.04 | -0.04 | -0.04 | -0.04 | -0.04 | -0.04 | -0.04 | -0.04 | -0.04 | 1.26 | -0.04 | -0.04 | 0.96 |
| C[C@]12CC[C@H](O)CC1=CC[C@@H]1[C@@H]2CC[C@]2(C)C(c3cccnc3)=CC[C@@H]12 [Abiraterone] (top concentration 5000 nM) | -0.12 | -0.12 | -0.12 | 1.18 | -0.12 | -0.12 | 0.28 | -0.12 | -0.12 | -0.12 | -0.12 | -0.12 | 1.48 | -0.12 | -0.12 | -0.12 | 3.48 | -0.12 | -0.02 | 0.08 |
| CC#CC(=O)N1CCC[C@H]1c1nc(-c2ccc(C(=O)Nc3ccccn3)cc2)c2c(N)nccn12 [Acalabrutinib] (top concentration 1000 nM) | -0.1 | -0.1 | -0.1 | -0.1 | -0.1 | 5.9 | 7.4 | 1.8 | -0.1 | -0.1 | -0.1 | -0.1 | 1.3 | 0 | -0.1 | 0.7 | -0.1 | -0.1 | 1.8 | 0 |
| CCc1cc2c(cc1N1CCC(N3CCOCC3)CC1)C(C)(C)c1[nH]c3cc(C#N)ccc3c1C2=O [Alectinib] (top concentration 1000 nM) | -0.22 | 0.98 | 0.78 | 3.18 | 1.08 | -0.22 | -0.12 | 1.68 | -0.22 | 0.18 | -0.02 | -0.22 | 1.68 | -0.22 | 2.58 | 1.28 | 7.28 | 0.08 | 4.98 | 2.48 |
| Oc1ncnc2[nH]ncc12 [Allopurinol] (top concentration 10000 nM) | -0.64 | -0.64 | -0.64 | 0.06 | -0.64 | -0.64 | -0.64 | -0.64 | -0.64 | -0.64 | -0.64 | -0.64 | 0.96 | -0.64 | -0.64 | -0.24 | -0.64 | -0.64 | -0.64 | 3.56 |
| COc1cc(NS(C)(=O)=O)ccc1Nc1c2ccccc2nc2ccccc12 [Amsacrine] (top concentration 10000 nM) | 13.5 | -1.84 | 3.16 | 15.5 | 21.7 | 3.86 | 13.2 | 11 | 22.5 | 20.1 | 11 | 21.3 | 13 | 10.9 | 8.26 | 1.76 | 5.66 | 4.16 | 24.7 | 18.2 |
| O=C1CN2Cc3c(ccc(Cl)c3Cl)N=C2N1 [Anagrelide] (top concentration 10000 nM) | 0 | 0 | 0 | 0 | 0 | 0 | 0.6 | 0 | 0 | 0 | 4.6 | 0 | 0 | 0 | 0 | 0 | 1 | 0 | 0 | 0 |
| N#CC(c1ccnc(OCc2ccc(CN3CCOCC3)cc2)n1)c1nc2ccccc2s1 (stereo not given) [Bentamapimod] (top concentration 10000 nM) | 2.94 | 2.44 | 5.64 | 2.34 | -0.46 | 0.74 | -0.46 | -0.46 | 4.04 | 2.94 | 1.84 | 1.74 | 5.34 | 3.84 | 3.44 | 5.54 | 6.24 | 3.64 | 4.44 | -0.06 |
| CCNC(=O)CCC/C=C\C[C@@H]1[C@@H](/C=C/[C@@H](O)CCc2ccccc2)[C@H](O)C[C@@H]1O [Bimatoprost] (top concentration 5500 nM) | 0 | 0 | 0 | 0 | 2.5 | 0 | 0.5 | 0 | 0 | 0 | 0 | 0 | 0 | 0 | 0 | 0 | 0 | 5.6 | 0 | 0 |
| COc1cc(C)[nH]c(=O)c1CNC(=O)c1c(C)n([C@H](C)C2CCOCC2)c2ccccc12 [CPI-360] (top concentration 10000 nM) | 0 | 0 | 0 | 0 | 0 | 0 | 0 | 0 | 0 | 0 | 0 | 0 | 1.8 | 0 | 0 | 0 | 0 | 0 | 0 | 0 |
